Reference: US9776972B2, “Pyrazole derivatives as arginine methyltransferase inhibitors and uses thereof” (priority 2013, dated 2017)
Like-named read-outs stand apart in the source and are kept apart here.

Legend:
human PRMT6 = biological target: T1, human PRMT6 (Homo sapiens, UniProt Q96LA8); assay: PRMT6 Biochemical Assay (3H-SAM Flashplate, peptide substrate)
T1 construct: Flag-PRMT6-His; made in house; host or cells: HEK 293F cells (BacMam baculovirus)
Method in brief: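 Methylation of a biotin-tagged H4 (36-50) peptide by ³H-SAM was quantified by streptavidin Flashplate capture and scintillation counts (dpm/cpm). Before SAM/peptide addition, Flag-PRMT6-His was preincubated with compound for 30 min at room temperature in Bicine buffer, pH 7.6.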

human PRMT1 = biological target: T2, human PRMT1 (Homo sapiens, UniProt Q99873); assay: PRMT1 Biochemical Assay (3H-SAM Flashplate, peptide substrate); details: single experiment or average of multiple experiments
T2 construct: GST-tagged PRMT1; made in house; host or cells: High Five insect cells (baculovirus)
T2 sequence (Q99873 with tags, fused parts or gaps): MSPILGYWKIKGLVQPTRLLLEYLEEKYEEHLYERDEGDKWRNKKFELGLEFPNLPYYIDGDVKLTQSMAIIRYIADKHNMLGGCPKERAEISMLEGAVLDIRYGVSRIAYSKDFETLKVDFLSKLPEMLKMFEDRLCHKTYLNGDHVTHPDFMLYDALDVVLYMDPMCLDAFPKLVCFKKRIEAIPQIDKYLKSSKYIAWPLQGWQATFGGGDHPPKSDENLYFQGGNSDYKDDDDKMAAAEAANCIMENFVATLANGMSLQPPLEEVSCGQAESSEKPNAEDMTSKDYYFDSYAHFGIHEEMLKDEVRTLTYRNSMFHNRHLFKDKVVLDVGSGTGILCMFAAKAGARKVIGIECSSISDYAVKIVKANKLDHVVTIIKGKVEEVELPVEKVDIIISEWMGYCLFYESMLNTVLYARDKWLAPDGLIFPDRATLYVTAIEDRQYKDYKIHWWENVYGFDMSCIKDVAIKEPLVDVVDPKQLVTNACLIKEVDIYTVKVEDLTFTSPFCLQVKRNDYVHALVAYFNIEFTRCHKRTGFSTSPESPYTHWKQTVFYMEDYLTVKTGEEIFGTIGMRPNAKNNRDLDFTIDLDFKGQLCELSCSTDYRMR
Method in brief: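 GST-tagged PRMT1 from baculovirus-infected cells, preincubated with compounds 30 min at room temperature in 20 mM Bicine pH 7.6, 1 mM TCEP, 0.005% BSG, 0.002% Tween 20. Reaction started with ³H-SAM plus biotinylated peptide, stopped with 300 µM cold SAM.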

[1] = Biochemical IC50 PRMT6, single experiment or average of multiple experiments
[2] = single experiment or average of multiple experiments, read-out: Biochemical IC50 PRMT6

T1 sequence (Q96LA8 with tags, fused parts or gaps): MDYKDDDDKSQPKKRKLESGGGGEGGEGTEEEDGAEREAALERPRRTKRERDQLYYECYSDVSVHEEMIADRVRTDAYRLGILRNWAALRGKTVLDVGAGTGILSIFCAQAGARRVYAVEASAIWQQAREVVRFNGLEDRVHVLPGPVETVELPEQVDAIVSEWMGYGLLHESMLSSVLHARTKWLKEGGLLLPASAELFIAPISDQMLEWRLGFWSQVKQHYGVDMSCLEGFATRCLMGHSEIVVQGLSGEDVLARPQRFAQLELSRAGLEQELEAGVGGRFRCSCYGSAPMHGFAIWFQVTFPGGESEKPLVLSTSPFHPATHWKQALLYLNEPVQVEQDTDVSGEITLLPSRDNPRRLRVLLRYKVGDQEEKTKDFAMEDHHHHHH

CNCCN(C)Cc1c[nH]nc1-c1ccc(F)cc1 [Compound 2, N^1-((3-(4-fluorophenyl)-1H-pyrazol-4-yl)methyl)-N^1,N^2-dimethylethane-1,2-diamine]
IC50 (human PRMT6; [1]): 96.1 nM
IC50 (human PRMT1): 57.6 nM

CCCc1ccc(-c2n[nH]cc2CN(C)CCNC)cc1 [Compound 20]
IC50 (human PRMT6; [1]): 7.79 nM
IC50 (human PRMT1): 4.12 nM

CNCCN(C)Cc1c[nH]nc1-c1cccc([N+](=O)[O-])c1 [Compound 21]
IC50 (human PRMT6; [1]): 12.2 nM
IC50 (human PRMT1): 57.9 nM

CNCCN(C)Cc1c[nH]nc1-c1cccc(C#N)c1 [Compound 22]
IC50 (human PRMT6; [1]): 11.9 nM
IC50 (human PRMT1): 166 nM

CNCCN(C)Cc1c[nH]nc1-c1ccccc1OC [Compound 23]
IC50 (human PRMT6; [1]): 183 nM
IC50 (human PRMT1): 194 nM

CNCCN(C)Cc1c[nH]nc1-c1cccc(OC)c1 [Compound 24]
IC50 (human PRMT6; [1]): 26.2 nM
IC50 (human PRMT1): 85.6 nM

CNCCN(C)Cc1c[nH]nc1-c1ccc(OC)cc1 [Compound 25]
IC50 (human PRMT6; [1]): 10.9 nM
IC50 (human PRMT1): 20.9 nM

CNCCN(C)Cc1c[nH]nc1-c1cccc(O)c1 [Compound 26]
IC50 (human PRMT6; [1]): 22.5 nM
IC50 (human PRMT1): 197 nM

CNCCN(C)Cc1c[nH]nc1-c1ccc(O)cc1 [Compound 27]
IC50 (human PRMT6; [1]): 18.5 nM
IC50 (human PRMT1): 97.7 nM

CNCCN(C)Cc1c[nH]nc1-c1ccc(CO)cc1 [Compound 28]
IC50 (human PRMT6; [1]): 9.1 nM
IC50 (human PRMT1): 11.1 nM

CNCCN(C)Cc1c[nH]nc1-c1ccc(C)cc1C [Compound 29]
IC50 (human PRMT6; [1]): 61.7 nM
IC50 (human PRMT1): 178 nM

CNCCN(C)Cc1cn(CCCC(O)CO)nc1-c1ccc(F)cc1 (stereo not drawn) [Compound 30]
IC50 (human PRMT6; [1]): 565 nM
IC50 (human PRMT1): 3560 nM

CNCCN(C)Cc1cnn(CCCC(O)CO)c1-c1ccc(F)cc1 (stereo not drawn) [Compound 31]
IC50 (human PRMT6; [1]): 110 nM
IC50 (human PRMT1): 779 nM

CNCCN(C)Cc1c[nH]nc1-c1ccc(N)cc1 [Compound 33]
IC50 (human PRMT6; [1]): 37.9 nM
IC50 (human PRMT1): 153 nM

CNCCN(C)Cc1c[nH]nc1-c1ccc(Oc2ccccc2)cc1 [Compound 37]
IC50 (human PRMT6; [1]): 3.29 nM
IC50 (human PRMT1): 2.74 nM

CNCCN(C)Cc1c[nH]nc1-c1ccccc1C(F)(F)F [Compound 38]
IC50 (human PRMT6; [2]): 352 nM
IC50 (human PRMT1): 1830 nM

CCNC(=O)c1cccc(-c2n[nH]cc2CN(C)CCNC)c1 [Compound 43]
IC50 (human PRMT6; [1]): 51.9 nM
IC50 (human PRMT1): 338 nM

CNCCN(C)Cc1c[nH]nc1-c1ccc(C(=O)c2ccccc2)cc1 [Compound 45]
IC50 (human PRMT6; [2]): 7.54 nM
IC50 (human PRMT1): 8.34 nM

CNCCN(C)Cc1c[nH]nc1-c1ccccc1-c1ccccc1 [Compound 46]
IC50 (human PRMT6; [2]): 3220 nM
IC50 (human PRMT1): 2500 nM

CNCCN(C)Cc1c[nH]nc1-c1ccc(F)cc1F [Compound 49]
IC50 (human PRMT6; [1]): 39.3 nM
IC50 (human PRMT1): 165 nM

CNCCN(C)Cc1c[nH]nc1-c1cc(F)ccc1F [Compound 50]
IC50 (human PRMT6; [1]): 42.8 nM
IC50 (human PRMT1): 149 nM

CNCCN(C)Cc1c[nH]nc1-c1ccc(F)c(F)c1 [Compound 51]
IC50 (human PRMT6; [1]): 9.95 nM
IC50 (human PRMT1): 12.9 nM

CNCCN(C)Cc1c[nH]nc1-c1ccc(OC)c(F)c1 [Compound 52]
IC50 (human PRMT6; [1]): 8.92 nM
IC50 (human PRMT1): 12.6 nM

CNCCN(C)Cc1c[nH]nc1-c1ccc(OC)cc1OC [Compound 55]
IC50 (human PRMT6; [2]): 87 nM
IC50 (human PRMT1): 190 nM

CNCCN(C)Cc1c[nH]nc1-c1c(OC)cccc1OC [Compound 56]
IC50 (human PRMT6; [2]): 1900 nM
IC50 (human PRMT1): 5850 nM

CNCCN(C)Cc1c[nH]nc1-c1cccc2ccccc12 [Compound 57]
IC50 (human PRMT6; [1]): 10.3 nM
IC50 (human PRMT1): 7.07 nM

CNCCN(C)Cc1c[nH]nc1-c1ccc2ccccc2c1 [Compound 58]
IC50 (human PRMT6; [1]): 6.14 nM
IC50 (human PRMT1): 5.73 nM

CNCCN(C)Cc1cn(CCC(O)CO)nc1-c1ccc(F)cc1 (stereo not drawn) [Compound 59]
IC50 (human PRMT6; [1]): 627 nM
IC50 (human PRMT1): 5860 nM

CCN(CCN)Cc1c[nH]nc1-c1ccc(F)cc1 [Compound 62]
IC50 (human PRMT6; [1]): 7.87 nM
IC50 (human PRMT1): 13.9 nM

CCCN(CCN)Cc1c[nH]nc1-c1ccc(F)cc1 [Compound 63]
IC50 (human PRMT6; [1]): 1150 nM
IC50 (human PRMT1): 1540 nM

CN(CCN)Cc1cnn(CCO)c1-c1ccc(F)cc1 [Compound 65]
IC50 (human PRMT6; [1]): 423 nM
IC50 (human PRMT1): 1940 nM

CN(CCN)Cc1cn(CCO)nc1-c1ccc(F)cc1 [Compound 66]
IC50 (human PRMT6; [1]): 1040 nM
IC50 (human PRMT1): 2410 nM

CN(CCN)Cc1c[nH]nc1-c1ccc(C#N)cc1 [Compound 68]
IC50 (human PRMT6; [1]): 6.7 nM
IC50 (human PRMT1): 6.04 nM

CNCCN(C)Cc1c[nH]nc1-c1cc(C(C)C)cc(C(C)C)c1 [Compound 229, N^1-((3-(3,5-diisopropylphenyl)-1H-pyrazol-4-yl)methyl)-N^1,N^2-dimethylethane-1,2-diamine]
IC50 (human PRMT6; [1]): 201 nM
IC50 (human PRMT1): 59.7 nM

CNCCN(C)Cc1c[nH]nc1-c1ccc(Oc2cccc(OC)c2)cc1 [Compound 230]
IC50 (human PRMT6; [1]): 2.19 nM
IC50 (human PRMT1): 3.43 nM

CNCCN(C)Cc1c[nH]nc1-c1ccc(Oc2cccc(F)c2)cc1 [Compound 231]
IC50 (human PRMT6; [1]): 2.97 nM
IC50 (human PRMT1): 4.08 nM

CNCCN(C)Cc1c[nH]nc1-c1ccc(Oc2ccccc2)c(C(=O)NC)c1 [Compound 232]
IC50 (human PRMT6; [1]): 16.6 nM
IC50 (human PRMT1): 25 nM

CNCCN(C)Cc1c[nH]nc1-c1ccc(Oc2ccccc2)c(C(=O)N(C)C)c1 [Compound 233]
IC50 (human PRMT6; [1]): 18.2 nM
IC50 (human PRMT1): 29.3 nM

CC(C)Cc1cccc(-c2n[nH]cc2CN(C)CCN)c1 [Compound 235]
IC50 (human PRMT6; [1]): 176 nM
IC50 (human PRMT1): 8.35 nM

CNCCN(C)Cc1c[nH]nc1-c1ccc(OCCCO)cc1 [Compound 236]
IC50 (human PRMT6; [1]): 14.7 nM
IC50 (human PRMT1): 9.17 nM

CNCCN(C)Cc1c[nH]nc1-c1ccc(Oc2ccccc2F)cc1 [Compound 237]
IC50 (human PRMT6; [1]): 2.13 nM
IC50 (human PRMT1): 2.06 nM

CNCCN(C)Cc1n[nH]cc1-c1ccc(Oc2cccc(OC)c2)cc1 [Compound 239]
IC50 (human PRMT6; [1]): 1.01 nM
IC50 (human PRMT1): 2.51 nM

CNCCN(C)Cc1n[nH]cc1-c1ccc(Oc2ccccc2)c(C(=O)NC)c1 [Compound 240]
IC50 (human PRMT6; [1]): 14.6 nM
IC50 (human PRMT1): 38.2 nM

CNCCN(C)Cc1n[nH]cc1-c1ccc(Oc2ccccc2)c(C(=O)N(C)C)c1 [Compound 241]
IC50 (human PRMT6; [1]): 34.1 nM
IC50 (human PRMT1): 52.2 nM

CNCCN(C)Cc1n[nH]cc1-c1cc(C(C)C)cc(C(C)C)c1 [Compound 242]
IC50 (human PRMT6; [1]): > 1000 nM
IC50 (human PRMT1): 376 nM

CNCCN(C)Cc1cn(C)nc1-c1ccc(OC(C)C)cc1 [Compound 243, N^1-((3-(4-isopropoxyphenyl)-1-methyl-1H-pyrazol-4-yl)methyl)-N1,N2-dimethylethane-1,2-diamine]
IC50 (human PRMT6; [1]): 286 nM
IC50 (human PRMT1): 17.7 nM

CNCCN(C)Cc1cn(Cc2ccncc2)nc1-c1ccc(OC(C)C)cc1 [Compound 245]
IC50 (human PRMT6; [1]): 224 nM
IC50 (human PRMT1): 35.3 nM

CNCCN(C)Cc1cn(Cc2cccnc2)nc1-c1ccc(OC(C)C)cc1 [Compound 246]
IC50 (human PRMT6; [1]): 318 nM
IC50 (human PRMT1): 61.5 nM

CNCCN(C)Cc1cn(Cc2ccccn2)nc1-c1ccc(OC(C)C)cc1 [Compound 247]
IC50 (human PRMT6; [1]): 805 nM
IC50 (human PRMT1): 147 nM

CNCCN(C)Cc1cn(CC(=O)OC)nc1-c1ccc(OC(C)C)cc1 [Compound 248]
IC50 (human PRMT6; [1]): 831 nM
IC50 (human PRMT1): 215 nM

CNCCN(C)Cc1cnn(CC(=O)OC)c1-c1ccc(OC(C)C)cc1 [Compound 249]
IC50 (human PRMT6; [1]): 428 nM
IC50 (human PRMT1): 109 nM

CNCCN(C)Cc1cn(CC(=O)O)nc1-c1ccc(OC(C)C)cc1 [Compound 250]
IC50 (human PRMT6; [1]): 4260 nM
IC50 (human PRMT1): 737 nM

CNCCN(C)Cc1cn(CC(N)=O)nc1-c1ccc(OC(C)C)cc1 [Compound 251]
IC50 (human PRMT6; [1]): 2370 nM
IC50 (human PRMT1): 275 nM

CCn1ncc(CN(C)CCNC)c1-c1ccc(OC(C)C)cc1 [Compound 252]
IC50 (human PRMT6; [1]): 102 nM
IC50 (human PRMT1): 25.8 nM
